{"source": "patent US4180588A", "about": "“Immunosuppressant” (Mitsubishi Chemical Industries, Ltd., priority 1977, dated 1979)", "key": {"[1]": {"test_system": "human lymphocytes", "assay": "Inhibition of blastogenesis of human lymphocytes induced by phytohemagglutinin (PHA), 3H-thymidine uptake", "format": "cell-based", "conditions": "for % Inhibition (3H-thymidine uptake by PHA-stimulated lymphocytes): 72 hours", "procedure": "Inhibition of the blastogenesis of the human lymphocytes induced by phytohemagglutinin (PHA)\n1.5×10^5 human lymphocytes in RPMI-1 640 medium (produced by GIBCO) supplemented with 10 wt. % fetal calf serum were incubated with 0.1 μl of PHA and in the presence or absence of N-(p-hydroxyphenyl)-L-glutamine (total volume: 0.1 ml) in a CO2 incubator at 37° C. for 72 hours. 0.1 μCi of ^3 H-thymidine was pulsed 7 hour before harvesting the cells. The lymphocytes were harvested and the radioactivity incorporated into the cells were counted."}, "[2]": {"test_system": "Daudi cells", "assay": "Growth inhibition of tissue-culture cells (Daudi cells), trypane blue dye exclusion", "format": "cell-based, human", "procedure": "Growth inhibition of tissue-culture cells\n2.6×10^5 /ml tissue culture cells (Daudi cells) derived from human lymphocytes in RPMI-1640 medium supplemented with 10% fetal calf serum were incubated with varied concentration of N-(p-hydroxyphenyl)-L-glutamine for 72 hours at 37° C. The number of live cells was determined by the trypane blue dye exclusion test."}, "[3]": {"test_system": "skin allograft", "assay": "Prolongation of the skin allograft in rat (Fisher to Wister/MK)", "format": "in vivo", "conditions": "25 mg/kg intraperitoneally everyday from day -7 until rejection; controls 9.0±1.6 days", "procedure": "Prolongation of the skin allograft in rat Wister/MK rats received skin allografts from Fisher rats on day 0.\nRecipient rats in the treatment group were administered intraperitoneally 25 mg/kg of N-(p-hydroxyphenyl)-L-glutamine dissolved in a phosphate buffer everyday from day - 7 until the day on which the rejection was observed. Rats treated with the compound rejected their grafts in 15.0±1.7 days, while controls rejected in 9.0±1.6 days."}, "[4]": {"test_system": "plaque forming cells in the spleen", "assay": "Plaque forming cells in the spleen of mice immunized with sheep blood cells (modified Cunningham's method)", "format": "in vivo, mice (ddY)", "conditions": "for PFC (No. of PFC ± S.E.): 5 animals, day 4, untreated 163 ± 64"}, "[5]": {"test_system": "nucleated cells in the spleen", "assay": "Total number of nucleated cells in the spleen of immunized mice", "format": "in vivo, mice (ddY)", "conditions": "for Number of nucleated cells (No. of lymphocytes ± S.E.): 5 animals, day 4, untreated 228 ± 18.8", "procedure": "Effect of N-(p-hydroxyphenyl)-L-glutamine on the total number of nucleated cells and the plaque forming cells in the spleen\nThe mice (ddY, 18 to 21 g) were intraperitoneally immunized with 1×10^8 sheep blood cells. The N-(p-hydroxyphenyl)-L-glutamine was administered subcutaneously on day 0, 1, 2 and 3. On day 4, the mice were sacrificed and the plaque forming cells in the spleen were determined according to the modified Cunningham's method (H. Fujiwara et al.; Experimental Method of Immunology Vol. 5, 1475 (1975)).\nTotal number of the nucleated cells in the spleen were counted after lysing erythrocytes with 0.5% acetic acid."}, "[6]": {"assay": "Acute toxicity (mortality 7 days after intraperitoneal administration)", "format": "in vivo, mice", "conditions": "mouse, in vivo, ip, mice, intraperitoneal", "from_the_text": "(§1) The varied doses of N-(p-hydroxyphenyl)-L-glutamine in an aqueous 5% sodium carboxymethyl cellulose solution were intraperitoneally administered to the mice. The mortality 7 days after the administration was as follows: […]"}, "[7]": {"test_system": "mice", "assay": "Acute toxicity (mortality 7 days after intraperitoneal administration)", "format": "in vivo", "from_the_text": "as §1"}, "[8]": {"assay": "Cytotoxic effect on the murine spleen cells, trypane-blue dye exclusion", "format": "cell-based", "conditions": "mouse, spleen cells, 48 hours, 86 at 0", "procedure": "(§2) Cytotoxic effect on the murine spleen cells 1×10^6 /ml murine spleen cells in RPMI-1640 medium supplemented with 5% fetal calf serum were incubated with a varied concentration of N-(p-hydroxyphenyl)-L-glutamine for 48 hours at 37° C. And then the viability of the cells was determined by the trypane-blue dye exclusion test."}, "[9]": {"test_system": "murine spleen cells", "assay": "Cytotoxic effect on the murine spleen cells, trypane-blue dye exclusion", "format": "cell-based", "conditions": "within the range of the concentration tested", "procedure": "as §2"}, "[10]": {"test_system": "Adjuvant arthritis in rats", "assay": "Adjuvant arthritis in rats (hind foot volume)", "format": "in vivo, Sprague-Dawley rats", "conditions": "day 1 until day 21", "procedure": "Effect of N-(p-hydroxyphenyl)-L-glutamine on Adjuvant arthritis in rats\nSprague-Dawley rats weighing 150 to 180 g were randomized in 6 groups and kept in a controlled evironment for 2 weeks prior to use. They were fed a standard diet and were allowed to drink water freely ad libitum.\nOn day 0, each rat was injected in the planter region of the right hind paw with 0.05 ml Freund's Complete Adjuvant containing 6 mg/ml of heat killed Mycobacterium butyricum (Difco) in sterile paraffin oil.\nThe volume of the injected (right) and non-injected (left) feet up to a mark on the tibio-tarsal joint was measured by water over-flow method.\nThe sensitized rats were dosed subcutaneously from day 1 until day 21 with either 12.5, 25, or 50 mg/kg of N-(p-hydroxyphenyl)-L-glutamine (γ-GHB), 2.5 mg/kg of prednisolone, and vehicle for control group."}, "[11]": {"conditions": "50 mg/kg subcutaneously on day 0, 1, 2 and 3"}, "[12]": {"conditions": "100 mg/kg subcutaneously on day 0, 1, 2 and 3"}, "[13]": {"conditions": "12.5, 25 or 50 mg/kg subcutaneously"}}}
{"smiles": "N[C@@H](CCC(=O)Nc1ccc(O)cc1)C(=O)O", "values": [{"measurement": "inhibition of PHA-induced blastogenesis (in words)", "setting": "[1]; 40 μg/ml", "result": "complete inhibition"}, {"measurement": "inhibition of PHA-induced blastogenesis, delayed addition (in words)", "setting": "[1]; 40 μg/ml added 0, 12, 24 and 48 hours after PHA stimulation", "result": "almost complete inhibition"}, {"measurement": "% Inhibition (3H-thymidine uptake by PHA-stimulated lymphocytes)", "setting": "[1]; 0.04 μ/ml", "result": 14, "unit": "%"}, {"measurement": "% Inhibition (3H-thymidine uptake by PHA-stimulated lymphocytes)", "setting": "[1]; 0.4 μ/ml", "result": 27, "unit": "%"}, {"measurement": "% Inhibition (3H-thymidine uptake by PHA-stimulated lymphocytes)", "setting": "[1]; 4 μ/ml", "result": 67, "unit": "%"}, {"measurement": "% Inhibition (3H-thymidine uptake by PHA-stimulated lymphocytes)", "setting": "[1]; 40 μ/ml", "result": 99, "unit": "%"}, {"measurement": "inhibition at 40 µg/mL", "setting": "[2]; Homo sapiens, Daudi, 40 μg/ml", "result": "~90", "unit": "%"}, {"measurement": "live cell growth (% of control) at 400 µg/mL", "setting": "[2]; Homo sapiens, Daudi, 400 μg/ml, 72 hours, read-out: Inhibition (%) (Control equals 100)", "result": 0, "unit": "%"}, {"measurement": "growth inhibition with delayed addition (in words)", "setting": "[2]; addition delayed from 24 hours to 48 hours after start of incubation", "result": "gradually decreased"}, {"measurement": "growth inhibition with exposure for first 24 hours only (in words)", "setting": "[2]; present for first 24 hours of 72 hours incubation", "result": "did not exhibit any growth inhibition"}, {"measurement": "time to rejection of skin graft", "setting": "[3]", "result": "15.0 ± 1.7", "unit": "days"}, {"measurement": "production of plaque forming cells (in words)", "setting": "[4]; 50 mg/kg", "result": "significantly inhibited"}, {"measurement": "PFC (No. of PFC ± S.E.)", "setting": "[4]; [11]", "result": "65.6 ± 9.5 × 10^3 /spleen"}, {"measurement": "PFC (No. of PFC ± S.E.)", "setting": "[4]; [12]", "result": "65.3 ± 14.0 × 10^3 /spleen"}, {"measurement": "total number of the nucleated cells in the spleen (in words)", "setting": "[5]; 50 mg/kg", "result": "did not affect"}, {"measurement": "Number of nucleated cells (No. of lymphocytes ± S.E.)", "setting": "[5]; [11]", "result": "176 ± 13.7 × 10^6 /spleen"}, {"measurement": "Number of nucleated cells (No. of lymphocytes ± S.E.)", "setting": "[5]; [12]", "result": "226 ± 39.1 × 10^6 /spleen"}, {"measurement": "LD50 at 168 h", "setting": "[6]", "result": "> 5000", "unit": "mg/kg"}, {"measurement": "No. of dead mice/No. of treated mice", "setting": "[7]; 1.768 g/kg intraperitoneally", "result": "0/5"}, {"measurement": "No. of dead mice/No. of treated mice", "setting": "[7]; 2.5 g/kg intraperitoneally", "result": "0/5"}, {"measurement": "No. of dead mice/No. of treated mice", "setting": "[7]; 3.535 g/kg intraperitoneally", "result": "1/5"}, {"measurement": "No. of dead mice/No. of treated mice", "setting": "[7]; 5 g/kg intraperitoneally", "result": "2/5"}, {"measurement": "No. of dead mice/No. of treated mice", "setting": "[7]; 10 g/kg intraperitoneally", "result": "1/1"}, {"measurement": "viability at 48 h", "setting": "[8]; concentration 10 (unit inferred)", "result": 83, "unit": "%"}, {"measurement": "viability at 48 h", "setting": "[8]; concentration 100 (unit inferred)", "result": 87, "unit": "%"}, {"measurement": "cytotoxic effect on the murine spleen cells (in words)", "setting": "[9]", "result": "did not exhibit any cytotoxic effect"}, {"measurement": "left (non-injected) hind foot swelling (in words)", "setting": "[10]; [13]", "result": "reduced significantly"}, {"measurement": "right (injected) hind foot swelling (in words)", "setting": "[10]; [13]", "result": "reduced significantly"}]}
{"smiles": "C[C@]12C=CC(=O)C=C1CC[C@@H]1[C@@H]2[C@@H](O)C[C@@]2(C)[C@H]1CC[C@]2(O)C(=O)CO", "note": "[prednisolone, reference compound]", "values": [{"measurement": "left (non-injected) hind foot swelling (in words)", "setting": "[10]; 2.5 mg/kg subcutaneously", "result": "reduced significantly"}, {"measurement": "right (injected) hind foot swelling (in words)", "setting": "[10]; 2.5 mg/kg subcutaneously", "result": "reduced significantly"}]}
{"smiles": "Sc1ncnc2nc[nH]c12", "note": "[6-Mercaptopurine, reference compound]", "values": [{"measurement": "PFC (No. of PFC ± S.E.)", "setting": "[4]; 25 mg/kg", "result": "18.8 ± 7.9 × 10^3 /spleen"}, {"measurement": "Number of nucleated cells (No. of lymphocytes ± S.E.)", "setting": "[5]; 25 mg/kg", "result": "78 ± 9.5 × 10^6 /spleen"}]}
